Reference: BindingDB's records for patent US20240025893 (Asahi Kasei Pharma, 2024)

Target: T1, Interleukin-1 receptor-associated kinase 4 (Homo sapiens, UniProt Q9NWZ3)
T1 sequence (Q9NWZ3 whole entry): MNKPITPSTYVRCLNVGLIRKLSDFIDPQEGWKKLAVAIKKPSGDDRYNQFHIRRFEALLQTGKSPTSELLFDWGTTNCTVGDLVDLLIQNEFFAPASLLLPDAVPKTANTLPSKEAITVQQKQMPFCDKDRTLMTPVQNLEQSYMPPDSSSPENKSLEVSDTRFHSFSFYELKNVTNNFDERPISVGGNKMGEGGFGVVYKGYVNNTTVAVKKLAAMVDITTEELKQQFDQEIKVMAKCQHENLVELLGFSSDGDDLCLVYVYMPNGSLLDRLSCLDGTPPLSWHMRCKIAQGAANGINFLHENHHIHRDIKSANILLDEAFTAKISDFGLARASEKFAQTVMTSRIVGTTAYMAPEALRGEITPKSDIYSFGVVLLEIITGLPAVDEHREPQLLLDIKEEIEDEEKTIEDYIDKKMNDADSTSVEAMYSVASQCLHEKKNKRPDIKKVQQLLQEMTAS
Experiment: Measurement of Human IRAK-4 Inhibitory Activity
Method: For the measurement of the activity of the human IRAK-4 (Invitrogen, Cat. PV3362), phosphorylation of the IRAK-4 peptide substrate (biotin-KKKKRFSFKKSFKC) by the enzyme in the presence of 10 μM ATP (Sigma-Aldrich, Cat. A7699) was measured by the TR-FRET method. The enzymatic reaction was performed in a reaction buffer containing 50 mM HEPES (pH 7.2), 1 mM DTT, 0.1 mM Na3VO4, 5 mM MgCl2, 1 mM MnCl2, and 0.1% bovine serum albumin. For the measurement of the IRAK-4 inhibitory activity, a test compound was added to the reaction buffer containing 1 nM IRAK-4, 0.5 μM peptide substrate, and 10 μM ATP, and the mixture was incubated at 23° C. for 30 minutes. Then, a detection solution containing an antibody labeled with europium cryptate (0.3 μg/mL, the antibody was prepared by using the IRAK-4 peptide substrate as the antigen), streptavidin-XL665 (2 μg/mL, CisBio, Cat. 610SAXLB), 50 mM HEPES (pH 7.2), 0.1% BSA, 120 mM KF, and 66.7 mM EDTA (all the concentrations of the reagents are final concentrations) was added to terminate the reaction, and then the mixture was further incubated at 23° C. for 60 minutes.

SMILES | IC50 [nM]
CC(C)(C)OC1CC(C(=O)Nc2cc3cc(-c4cnc(CO[C@H]5CCC[C@@H]5O)nc4)ccn3n2)C1 (some centres not stated) [US20240025893, Examplee-03-01] | 1.75
CO[C@H]1C[C@@H](C(=O)Nc2nc3ccc(-c4cnc(CO[C@H]5CCC[C@@H]5O)nc4)cc3s2)C1 [US20240025893, Example a-01-06] | 3.29
